Experimental data as given in ChEMBL document CHEMBL1671638, “Cloning, expression, and characterization of Babesia gibsoni dihydrofolate reductase-thymidylate synthase: inhibitory effect of antifolates on its catalytic activity and parasite proliferation” (Antimicrob Agents Chemother, 2008).
pIC50: −log10 of the molar value. Activity calls are given as the source filed them. The calls are words filed in the database; no cut-off is given here.

Tests used:
[1] = test system: Babesia gibsoni; assay: Antiparasitic activity against Babesia gibsoni infected in dog erythrocytes assessed as growth inhibition at 150 nM by Giemsa staining based microscopy; format: functional, organism-based
[2] = test system: Babesia gibsoni; assay: (§1) Inhibition of Babesia gibsoni Dihydrofolate reductase-thymidylate synthase expressed in Escherichia coli BL21
[3] = as §1
[4] = test system: Babesia gibsoni; assay: Antiparasitic activity against Babesia gibsoni infected in dog erythrocytes assessed as growth inhibition at 50 nM by Giemsa staining based microscopy; format: functional, organism-based
[5] = test system: Babesia gibsoni; assay: Antiparasitic activity against Babesia gibsoni infected in dog erythrocytes assessed as growth inhibition at 20 uM by Giemsa staining based microscopy; format: functional, organism-based
[6] = test system: Babesia gibsoni; assay: Antiparasitic activity against Babesia gibsoni infected in dog erythrocytes assessed as growth inhibition at 80 uM by Giemsa staining based microscopy; format: functional, organism-based

inhibition [2] | pIC50 [3] | SMILES | inhibition [1] | inhibition [4] | Activity [5] | Activity [6]
Dose-dependent effect | 7.16 | CN(Cc1cnc2nc(N)nc(N)c2n1)c1ccc(C(=O)N[C@@H](CCC(=O)O)C(=O)O)cc1 [METHOTREXATE] | Active | Active | – | –
Dose-dependent effect | 7.30 | CCc1nc(N)nc(N)c1-c1ccc(Cl)cc1 [PYRIMETHAMINE] | – | – | Active | Active
Dose-dependent effect | 7.26 | COc1cc(Cc2cnc(N)nc2N)cc(OC)c1OC [TRIMETHOPRIM] | – | – | Active | Active
